The values below come from ChEMBL document CHEMBL5036348, “Identification and evaluation of 4-anilinoquin(az)olines as potent inhibitors of both dengue virus (DENV) and Venezuelan equine encephalitis virus (VEEV)” (Bioorg Med Chem Lett, 2021).

The subject of one data set is dengue virus type 2. In words: Antiviral activity against DENV2 New Guinea C strain infected in human Huh7 cells assessed as reduction in viral infection measured after 48 hrs post infection by renilla luciferase assay relative to control. To be noted: Huh-7, 48 h. Type of data set: functional, organism-based.
Data set [1] can be described thus: Cytotoxicity against Venezuelan equine encephalitis virus TC-83 strain infected human U-87 MG cells assessed as reduction in cell viability by alamar blue assay. The format is cell-based, U-87MG ATCC.
In data set [2] the test system is Venezuelan equine encephalitis virus. Briefly: Antiviral activity against Venezuelan equine encephalitis virus TC-83 strain infected in human U-87 MG cells assessed as reduction in viral infection measured after 18 hrs post infection by Nano luciferase assay relative to control. To be noted: TC-83, U-87 MG. The format is functional, organism-based.
Data set [3] in a line: Cytotoxicity against DENV infected human Huh-7 cells assessed as reduction in cell viability by alamar blue assay. Type of data set: cell-based. Particulars: DENV-infected Huh-7 cells. A general note: The colour change of resazurin is a common sign of viable cells or microbes.

The EC50 is the midpoint of the concentration-response curve. The term CC50 denotes the concentration giving 50% cytotoxicity.

Bounds are passed on as bounds.

As for `FC(F)(F)c1ccc2nccc(Nc3ccccc3Br)c2c1`, the EC50 (in the data set on dengue virus type 2; in data set [2]) was over 10 µM each time. Also, the CC50 in data set [1] and in data set [3] was over 10 µM in each case.

Take `C#Cc1cccc(Nc2c(C#N)cnc3ccc(OC)cc23)c1`: the EC50 is 8.9 µM in the data set with dengue virus type 2 and over 10 µM in data set [2]. Besides, the CC50 in data set [1] and in data set [3] was over 10 µM throughout.

For the compound `C#Cc1cccc(Nc2ccnc3ccc(OC)cc23)c1`, the EC50 with dengue virus type 2 was 4.3 µM; in data set [2], over 10 µM. The CC50 in data set [1] and in data set [3] was over 10 µM in each case.

As to `COc1cc(Nc2ccnc3ccc(C(F)(F)F)cc23)cc(OC)c1`, the values for the EC50 (with dengue virus type 2; in data set [2]) were 1.3 µM and 2.1 µM, respectively. In addition, the CC50 in data set [1] and in data set [3] was over 10 µM throughout.

Regarding `Fc1cc(Nc2ccnc3ccc(C(F)(F)F)cc23)ccc1Cl`, the EC50 in the data set with dengue virus type 2 was 4.1 µM; in data set [2], 1.7 µM. Moreover, the CC50 in data set [1] and in data set [3] was over 10 µM each time.

For `COc1cccc(Nc2ccnc3cc(OC)c(OC)cc23)c1`, the figures for the EC50 (with dengue virus type 2; in data set [2]) were 5.9 µM and 4.8 µM, respectively. The CC50 in data set [1] and in data set [3] was over 10 µM each time.

In the case of `C#Cc1cccc(Nc2ncnc3cc(OC)c(OC)cc23)c1`, the EC50 worked out at 6.5 µM in the data set with dengue virus type 2 and 10 µM in data set [2]. Further, the CC50 in data set [1] and in data set [3] was over 10 µM in each case.

As to `FC(F)(F)c1ccc2nccc(Nc3ccc(Cl)c(Cl)c3)c2c1`, the EC50 in the data set on dengue virus type 2 was 3.3 µM; in data set [2], 0.5 µM. The CC50 in data set [1] and in data set [3] was over 10 µM throughout.

On to `COc1cc(Nc2ncnc3ccc(C(F)(F)F)cc23)cc(OC)c1OC`, for which the EC50 (in the data set on dengue virus type 2; in data set [2]) was over 10 µM each time. For the same compound, the CC50 in data set [1] and in data set [3] was over 10 µM in each case.

For the compound `C#Cc1cc(Nc2ncnc3cc(I)ccc23)ccc1F`, the EC50 (in the data set with dengue virus type 2; in data set [2]) was over 10 µM each time. The CC50 in data set [1] and in data set [3] was over 10 µM each time.

In the case of `C#Cc1cc(Nc2ncnc3cc(OC)c(OC)cc23)ccc1F`, the EC50 in the data set on dengue virus type 2 is 7.6 µM; in data set [2], 0.6 µM. The CC50 in data set [1] and in data set [3] was over 10 µM each time.

As to `CC(=O)c1cccc(Nc2ccnc3ccc(C(F)(F)F)cc23)c1`, the EC50 was 6.8 µM with dengue virus type 2 and over 10 µM in data set [2]. In addition, the CC50 in data set [1] and in data set [3] was over 10 µM in each case.

With `COc1ccc(Nc2ccnc3ccc(C(F)(F)F)cc23)c(OC)c1`, the EC50 in the data set with dengue virus type 2 was over 10 µM; in data set [2], 3.4 µM. Also, the CC50 in data set [1] and in data set [3] was over 10 µM each time.

Turning to `C#Cc1cc(Nc2ncnc3ccc(I)cc23)ccc1F`, the EC50 is 5 µM in the data set with dengue virus type 2 and over 10 µM in data set [2]. Besides, the CC50 in data set [1] and in data set [3] was over 10 µM in each case.

For the compound `FC(F)(F)c1ccc2nccc(Nc3cccc(Cl)c3)c2c1`, the EC50 came out at 7.9 µM with dengue virus type 2 and 4.8 µM in data set [2]. In addition, the CC50 in data set [1] and in data set [3] was over 10 µM in each case.

For `C#Cc1cccc(Nc2ncnc3cc(OC)ccc23)c1`, the EC50 (with dengue virus type 2; in data set [2]) was over 10 µM each time. In addition, the CC50 in data set [1] and in data set [3] was over 10 µM in each case.

As to `C#Cc1cc(Nc2ncnc3cc(C#N)ccc23)ccc1F`, the values for the EC50 (with dengue virus type 2; in data set [2]) were over 10 µM and 3.9 µM, respectively. For the same compound, the CC50 in data set [1] and in data set [3] was over 10 µM throughout.

For `COc1ccc(OC)c(Nc2ccnc3ccc(C(F)(F)F)cc23)c1`, the EC50 in the data set with dengue virus type 2 was 0.25 µM; in data set [2] it was 1.7 µM. The CC50 in data set [1] and in data set [3] was over 10 µM in each case.

Consider `FC(F)(F)c1ccc2nccc(Nc3cccc(I)c3)c2c1`, for which the EC50 in the data set on dengue virus type 2 came to 6.1 µM; in data set [2] it was 1.4 µM. Also, the CC50 in data set [1] and in data set [3] was over 10 µM throughout.

For `CS(=O)(=O)c1ccc(Nc2ccnc3ccc(C(F)(F)F)cc23)cc1`, the EC50 in the data set with dengue virus type 2 was 6.1 µM; in data set [2] it was over 10 µM. Also, the CC50 in data set [1] and in data set [3] was over 10 µM each time.

On to `FC(F)(F)c1ccc2nccc(Nc3cccc(Br)c3)c2c1`, for which the figures for the EC50 (in the data set on dengue virus type 2; in data set [2]) were 6.1 µM and 2.3 µM, respectively. Further, the CC50 in data set [1] and in data set [3] was over 10 µM in each case.

Take `C#Cc1ccc(F)c(Nc2ncnc3cc(OC)c(OC)cc23)c1`: the EC50 in the data set with dengue virus type 2 amounted to 9 µM; in data set [2] it was 7.8 µM. Also, the CC50 in data set [1] and in data set [3] was over 10 µM each time.

As for `Fc1cc(Cl)cc(Nc2ccnc3ccc(C(F)(F)F)cc23)c1`, the values for the EC50 (with dengue virus type 2; in data set [2]) were 9.3 µM and 5.8 µM, respectively. The CC50 in data set [1] and in data set [3] was over 10 µM throughout.

Consider `Fc1ccccc1Nc1ccnc2ccc(C(F)(F)F)cc12`, for which the EC50 (in the data set on dengue virus type 2; in data set [2]) was over 10 µM throughout. For the same compound, the CC50 in data set [1] and in data set [3] was over 10 µM each time.

Turning to `COc1cc2nccc(Nc3cccc(Br)c3)c2cc1OC`, the EC50 came to 9.8 µM in the data set on dengue virus type 2 and 4.8 µM in data set [2]. The CC50 in data set [1] and in data set [3] was over 10 µM each time.

As to `C#Cc1cccc(Nc2ncnc3cc(OC)c(OC)cc23)c1F`, the EC50 with dengue virus type 2 was over 10 µM; in data set [2], 10 µM. Moreover, the CC50 in data set [1] and in data set [3] was over 10 µM each time.

As to `COc1ccccc1Nc1ccnc2ccc(C(F)(F)F)cc12`, the EC50 in the data set with dengue virus type 2 was over 10 µM; in data set [2] it was 2.5 µM. Further, the CC50 in data set [1] and in data set [3] was over 10 µM each time.

For `Fc1ccc(Nc2ccnc3ccc(C(F)(F)F)cc23)cc1`, the EC50 (in the data set with dengue virus type 2; in data set [2]) was over 10 µM each time. For the same compound, the CC50 in data set [1] and in data set [3] was over 10 µM throughout.

Consider `FC(F)(F)c1ccc2nccc(Nc3ccc4c(c3)OCCO4)c2c1`, for which the EC50 (in the data set with dengue virus type 2; in data set [2]) was over 10 µM throughout. The CC50 in data set [1] and in data set [3] was over 10 µM in each case.

Take `FC(F)(F)c1ccc2nccc(Nc3ccc(Br)cc3)c2c1`: the EC50 in the data set on dengue virus type 2 is 4.1 µM; in data set [2] it was 6.3 µM. Besides, the CC50 in data set [1] and in data set [3] was over 10 µM in each case.

For the compound `C#Cc1cccc(Nc2c(C#N)cnc3cc(OC)c(OC)cc23)c1`, the EC50 is 3 µM with dengue virus type 2 and over 10 µM in data set [2]. In addition, the cytotoxic concentration (CC50) in data set [1] and in data set [3] was over 10 µM in each case.

Turning to `C#Cc1cccc(Nc2c(C#N)cnc3cc(OC)ccc23)c1`, the EC50 was 7.8 µM with dengue virus type 2 and over 10 µM in data set [2]. Further, the CC50 in data set [1] and in data set [3] was over 10 µM in each case.

`COc1ccc(Nc2ccnc3ccc(C(F)(F)F)cc23)cc1`: the EC50 worked out at 7.7 µM in the data set on dengue virus type 2 and 0.88 µM in data set [2]. For the same compound, the 50% cytotoxic concentration (CC50) in data set [1] and in data set [3] was over 10 µM each time.
